Data taken from article PMC12344683, “N-alkyl and N-benzyl indoles are anti-SARS-CoV-2 agents and nsp13 inhibitors” (Journal of Enzyme Inhibition and Medicinal Chemistry, 2025).

Legend:
SARS-CoV-2 nsp13 [1] = target: T1, SARS-CoV-2 nsp13 (Severe acute respiratory syndrome coronavirus 2, UniProt P0DTD1); experiment: SARS-CoV-2 nsp13 unwinding-associated activity (fluorescence, BSA-TCEP); assay type: biochemical; conditions: for IC50: SARS-CoV-2 nsp13-associated unwinding activity, from dose-response curves; for remaining activity at 30 µM: read-out: Percentage of enzymatic residual activity (unwinding)
SARS-CoV-2 nsp13 [2] = target: T1, SARS-CoV-2 nsp13; experiment: SARS-CoV-2 nsp13 ATPase-associated activity (Biomol Green, BSA-TCEP); assay type: biochemical; conditions: for IC50: SARS-CoV-2 nsp13-associated ATPase activity, from dose-response curves; for remaining activity at 30 µM: read-out: Percentage of enzymatic residual activity (ATPase)
[3] = Cellular toxicity assay (GFP signal as viability); assay type: cell-based; conditions: African green monkey; Vero cells; read-out: CC50, concentration required to reduce Vero cells viability by 50%
Procedure: Vero E6-green fluorescent protein (GFP) cells (Janssen Pharmaceutical were maintained in Dulbecco’s modified Eagle’s medium (DMEM, Gibco) supplemented with 10% v/v foetal beef serum (FBS, Gibco), 0.075% Sodium Bicarbonate (7.5% solution, Gibco) and 1X Pen-strep (Euroclone) and kept under 5% CO2 on 37 ◦C. The cells were seeded at 10 000 cells/well in 96-well black cell-treated plates (PerkinElmer). The following day, cells were incubated with the control compounds at different concentrations. Compound was dissolved in 0.1% DMSO. Seventy-two hours post infection the GPF signal, as direct index of cellular viability, was quantified by measuring the total-well fluorescence with a Victor 3 multiplate reader (PerkinElmer) set to excitation and emission wavelengths of 485 and 535 nm, respectively.
The percentage of induced cytopathic effects (CPE) was calculated considering the mock as 100% of cell viability, and the readout from empty wells as blank. The compound half-maximal cytopathic concentration (CC50), was determined via non-linear regression by using on Prism 9 v. 9.4.1 software (GraphPad) the built-in function dose-response inhibition, log-concentration-normalized response. Experimental points represent the average and standard deviation of at least two sets of independent triplicates.

[4] = read-out: Activity in enzyme assay IC50 Unwinding BSA-TCEP
[5] = read-out: Activity in enzyme assay IC50 ATPase BSA-TCEP
[6] = Activity in enzyme assay IC50 Unwinding BSA-TCEP
[7] = Activity in enzyme assay IC50 ATPase BSA-TCEP

SMILES	IC50 (SARS-CoV-2 nsp13 [1]; [4]) [µM]	IC50 (SARS-CoV-2 nsp13 [2]; [5]) [µM]	IC50 (SARS-CoV-2 nsp13 [1]; [6]) [µM]	IC50 (SARS-CoV-2 nsp13 [2]; [7]) [µM]	further results
C/C=C/Cn1cc(/C=C/C(=O)/C=C(\O)C(=O)OCC)c2ccccc21 [10a, Ethyl (2Z,5E)-6-(1-((E)-but-2-en-1-yl)-1H-indol-3-yl)-2-hydroxy-4-oxohexa-2,5-dienoate]	13.2 ± 1.86	8.79 ± 0.69			
O=C(O)/C(O)=C/C(=O)c1cn(Cc2ccc(OC(F)(F)F)cc2)c2ccccc12 [7e]			22.2 ± 1.37	20.3	
O=C(/C=C(\O)C(=O)O)/C=C/c1cn(Cc2ccc(F)cc2)c2ccccc12 [5d, (2Z,5E)-6-(1-(4-fluorobenzyl)-1H-indol-3-yl)-2-hydroxy-4-oxohexa-2,5-dienoic acid]	7.63 ± 2.48	9.91 ± 0.5			
CCOC(=O)/C(O)=C/C(=O)c1cn(Cc2ccc(OC(F)(F)F)cc2)c2ccccc12 [8e]			11.3 ± 0.65	2.29 ± 0.02	
COc1ccc(Cn2cc(/C=C/C(=O)/C=C(\O)C(=O)O)c3ccccc32)cc1 [5a, (2Z,5E)-2-hydroxy-6-(1-(4-methoxybenzyl)-1H-indol-3-yl)-4-oxohexa-2,5-dienoic acid]	10.5 ± 0.81	19.9 ± 0.73			
CCOC(=O)/C(O)=C/C(=O)/C=C/c1cn(Cc2ccc(C#N)cc2)c2ccccc12 [6g, Ethyl (2Z,5E)-6-(1-(4-cyanobenzyl)-1H-indol-3-yl)-2-hydroxy-4-oxohexa-2,5-dienoate]	6.76 ± 1.18	6.24 ± 0.24			
O=C(O)/C(O)=C/C(=O)c1cn(Cc2ccccc2)c2ccccc12 [7j, (Z)-4-(1-benzyl-1H-indol-3-yl)-2-hydroxy-4-oxobut-2-enoic acid]			30 ± 1.5	10.3 ± 1.75	
CCOC(=O)/C(O)=C/C(=O)/C=C/c1cn(S(=O)(=O)c2ccccc2)c2ccccc12 [6f]	11 ± 0.37	7.07 ± 0.74			
CCOC(=O)/C(O)=C/C(=O)/C=C/c1cn(Cc2ccc(F)cc2)c2ccccc12 [6d, Ethyl (2Z,5E)-6-(1-(4-fluorobenzyl)-1H-indol-3-yl)-2-hydroxy-4-oxohexa-2,5-dienoate]	3.64 ± 0.11	3.22 ± 0.14			
CCOC(=O)/C(O)=C/C(=O)/C=C/c1cn(CCC(C)C)c2ccccc12 [10f, Ethyl (2Z,5E)-2-hydroxy-6-(1-isopentyl-1H-indol-3-yl)-4-oxohexa-2,5-dienoate]	13.5 ± 0.25	6.27 ± 0.2			
O=C(/C=C(\O)C(=O)O)/C=C/c1cn(Cc2ccc(O)cc2)c2ccccc12 [5h, (2Z,5E)-2-hydroxy-6-(1-(4-hydroxybenzyl)-1H-indol-3-yl)-4-oxohexa-2,5-dienoic acid]	2.77 ± 0.42	9.1 ± 3.4			
CCOC(=O)/C(O)=C/C(=O)c1cn(Cc2ccccc2)c2ccccc12 [8j, Ethyl (Z)-4-(1-benzyl-1H-indol-3-yl)-2-hydroxy-4-oxobut-2-enoate]			26 ± 0.89	14.5 ± 1.49	
CCCCn1cc(/C=C/C(=O)/C=C(\O)C(=O)O)c2ccccc21 [9e, (2Z,5E)-6-(1-butyl-1H-indol-3-yl)-2-hydroxy-4-oxohexa-2,5-dienoic acid]		> 30			remaining activity at 30 µM (SARS-CoV-2 nsp13 [1]; measured at 30 µM): 41%; remaining activity at 30 µM (SARS-CoV-2 nsp13 [2]; measured at 30 µM): 100%
C=C(C)Cn1cc(/C=C/C(=O)/C=C(\O)C(=O)O)c2ccccc21 [9b, (2Z,5E)-2-hydroxy-6-(1-(2-methylallyl)-1H-indol-3-yl)-4-oxohexa-2,5-dienoic acid]	> 30	> 30			remaining activity at 30 µM (SARS-CoV-2 nsp13 [1]; measured at 30 µM): 72%; remaining activity at 30 µM (SARS-CoV-2 nsp13 [2]; measured at 30 µM): 68%
Cc1ccc(Cn2cc(/C=C/C(=O)/C=C(\O)C(=O)O)c3ccccc32)cc1 [5b]	13.6 ± 1.96	3.83 ± 0.45			
CC(C)c1ccc(Cn2cc(C(=O)/C=C(\O)C(=O)O)c3ccccc32)cc1 [7c]			14.1 ± 0.48	13 ± 1.08	
C/C=C/Cn1cc(/C=C/C(=O)/C=C(\O)C(=O)O)c2ccccc21 [9a, (2Z,5E)-6-(1-((E)-but-2-en-1-yl)-1H-indol-3-yl)-2-hydroxy-4-oxohexa-2,5-dienoic acid]	19.4 ± 3.7	> 30			remaining activity at 30 µM (SARS-CoV-2 nsp13 [2]; measured at 30 µM): 70%
CCOC(=O)/C(O)=C/C(=O)c1cn(Cc2ccc(C(C)C)cc2)c2ccccc12 [8c]			9.66 ± 2.89	9.64 ± 2.27	

SMILES	IC50 (SARS-CoV-2 nsp13 [1]; [4]) [µM]	IC50 (SARS-CoV-2 nsp13 [2]; [5]) [µM]	IC50 (SARS-CoV-2 nsp13 [1]; [6]) [µM]	IC50 (SARS-CoV-2 nsp13 [2]; [7]) [µM]	further results
CCn1cc(/C=C/C(=O)/C=C(\O)C(=O)O)c2ccccc21 [9d]	11.8 ± 4.03	8.32 ± 0.08			
C=C(C)Cn1cc(/C=C/C(=O)/C=C(\O)C(=O)OCC)c2ccccc21 [10b, Ethyl (2Z,5E)-2-hydroxy-6-(1-(2-methylallyl)-1H-indol-3-yl)-4-oxohexa-2,5-dienoate]	21.5 ± 0.23	7.26 ± 0.65			
CC(C)CCn1cc(/C=C/C(=O)/C=C(\O)C(=O)O)c2ccccc21 [9f, (2Z,5E)-2-hydroxy-6-(1-isopentyl-1H-indol-3-yl)-4-oxohexa-2,5-dienoic acid]	15.9 ± 0.59	23.1 ± 1.41			
O=C(O)/C(O)=C/C(=O)c1cn(Cc2ccc(F)cc2)c2ccccc12 [7d, (Z)-4-(1-(4-fluorobenzyl)-1H-indol-3-yl)-2-hydroxy-4-oxobut-2-enoic acid]			> 30	> 30	remaining activity at 30 µM (SARS-CoV-2 nsp13 [1]): 50%; remaining activity at 30 µM (SARS-CoV-2 nsp13 [2]): 70%
Cc1ccc(Cn2cc(C(=O)/C=C(\O)C(=O)O)c3ccccc32)cc1 [7b]			20.6 ± 3.22	8.33 ± 0.45	
O=C(/C=C(\O)C(=O)O)/C=C/c1cn(S(=O)(=O)c2ccccc2)c2ccccc12 [5f]	7.54 ± 0.76	5.36 ± 0.74			
CC[C@@]1(O)C(=O)OCc2c1cc1n(c2=O)Cc2cc3ccccc3nc2-1 [Camptothecin, reference compound]					CC50 at 72 h [3]: 11.1 ± 0.16 µM
CCOC(=O)/C(O)=C/C(=O)/C=C/c1cn(CC)c2ccccc12 [10d]	11.8 ± 4.03	18.5 ± 0.65			
CCOC(=O)/C(O)=C/C(=O)/C=C/c1cn(Cc2ccc(O)cc2)c2ccccc12 [6h, Ethyl (2Z,5E)-2-hydroxy-6-(1-(4-hydroxybenzyl)-1H-indol-3-yl)-4-oxohexa-2,5-dienoate]	15.4 ± 1.47	3.7 ± 0.74			
CCOC(=O)/C(O)=C/C(=O)c1cn(Cc2ccc(C)cc2)c2ccccc12 [8b]			13.2 ± 2.76	7.01 ± 0.05	
CCOC(=O)/C(O)=C/C(=O)/C=C/c1cn(Cc2ccc(OC)cc2)c2ccccc12 [6a, Ethyl (2Z,5E)-2-hydroxy-6-(1-(4-methoxybenzyl)-1H-indol-3-yl)-4-oxohexa-2,5-dienoate]	6.65 ± 1.2	2.21 ± 0.26			
CCOC(=O)/C(O)=C/C(=O)/C=C/c1cn(C=C(C)C)c2ccccc12 [10c, Ethyl (2Z,5E)-2-hydroxy-6-(1-(2-methylprop-1-en-1-yl)-1H-indol-3-yl)-4-oxohexa-2,5-dienoate]	19.3 ± 0.76	4.93 ± 1.4			
CCOC(=O)/C(O)=C/C(=O)/C=C/c1cn(Cc2ccc(F)cc2)c2ccc(Cl)cc12 [6i, Ethyl (2Z,5E)-6-(5-chloro-1-(4-fluorobenzyl)-1H-indol-3-yl)-2-hydroxy-4-oxohexa-2,5-dienoate]	5.22 ± 0.44	3.92 ± 0.96			
CCOC(=O)/C(O)=C/C(=O)c1cn(Cc2ccc(OC)cc2)c2ccccc12 [8a]			13.1 ± 1.78	8.06 ± 1.78	
CCOC(=O)/C(O)=C/C(=O)/C=C/c1cn(Cc2ccc(C)cc2)c2ccccc12 [6b]	7.34 ± 1.81	2.88 ± 0.59			
CCOC(=O)/C(O)=C/C(=O)/C=C/c1cn(Cc2ccc(C(C)C)cc2)c2ccccc12 [6c]	5.81 ± 0.47	5.8 ± 0.12			
CCCCn1cc(/C=C/C(=O)/C=C(\O)C(=O)OCC)c2ccccc21 [10e, Ethyl (2Z,5E)-6-(1-butyl-1H-indol-3-yl)-2-hydroxy-4-oxohexa-2,5-dienoate]	14.8 ± 1.18	5.72 ± 1.63			
COc1ccc(Cn2cc(C(=O)/C=C(\O)C(=O)O)c3ccccc32)cc1 [7a]			> 30	> 30	remaining activity at 30 µM (SARS-CoV-2 nsp13 [1]): 50.4%; remaining activity at 30 µM (SARS-CoV-2 nsp13 [2]): 73.4%
